Source: patent US12565490B2, “Inhibitors of Receptor Interacting Protein Kinase I for the treatment of disease” (Board of Regents, The University of Texas System, priority 2020, dated 2026)

Test system: human monocytic cell line U937
Assay: Human U937 cellular necroptosis assay
Assay type: cell-based
Settings: U-937; U937 cells stimulated with 25 ng/mL human TNFalpha and 25 μM z-VAD-FMK; 22 hr; viability by Cell Titer-Glo 2.0; read-out: hU937 IC50
Outline: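 U937 cells (5000/well) driven to necroptosis by 25 ng/mL human TNFalpha plus 25 μM z-VAD-FMK alongside 1:3-diluted compounds, 22 hr at 37° C, 5% CO2. Viability by CellTiter-Glo luminescence; IC50 from four-parameter logistic fit.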

Q: How did the IC50 turn out when `CN1C(=O)[C@@H](NC(=O)c2ncc(Cl)c(-c3ccc(F)cc3)n2)COc2cccnc21` [Example 49, (S)-5-chloro-4-(4-fluorophenyl)-N-(5-methyl-4-oxo-2,3,4,5-tetrahydro-pyrido[3,2-b][1,4]oxazepin-3-yl)pyrimidine-2-carboxamide] was run?
A: 8.35 nM

Q: With `Cc1cnc(C(=O)N[C@H]2COc3cc(C#N)ccc3N(C)C2=O)nc1N1CCN(C)CC1` [Example 31, (S)-N-(8-cyano-5-methyl-4-oxo-2,3,4,5-tetrahydro-benzo[b][1,4]oxazepin-3-yl)-5-methyl-4-(4-methylpiperazin-1-yl)pyrimidine-2-carboxamide] as the compound, how does the IC50 read?
A: ≥ 10000 nM

Q: With `Cc1cnc(C(=O)N[C@H]2COc3cc(C#N)ccc3N(C)C2=O)nc1N1CCCCC1` [Example 14, (S)-N-(8-cyano-5-methyl-4-oxo-2,3,4,5-tetrahydro-benzo[b][1,4]oxazepin-3-yl)-5-methyl-4-(piperidin-1-yl)-pyrimidine-2-carboxamide] as the compound, how does the IC50 read?
A: 119 nM

Q: For `CN1C(=O)[C@@H](NC(=O)c2ncc(Cl)c(-c3cccc(F)c3F)n2)COc2cc(Cl)cnc21` [Example 95, (S)-5-chloro-N-(8-chloro-5-methyl-4-oxo-2,3,4,5-tetrahydropyrido[3,2-b]-[1,4]oxazepin-3-yl)-4-(2,3-difluorophenyl)pyrimidine-2-carboxamide], which IC50 is on record?
A: 15.2 nM

Q: With `Cc1cnc(C(=O)N[C@H]2COc3cc(F)cnc3N(C)C2=O)nc1-c1ccccc1F` [Example 88, (S)-N-(8-fluoro-5-methyl-4-oxo-2,3,4,5-tetrahydro-pyrido[3,2-b][1,4]oxazepin-3-yl)-4-(2-fluorophenyl)-5-methylpyrimidine-2-carboxamide] as the compound, how does the IC50 read?
A: 13.7 nM

Q: With `Cc1cnc(C(=O)NC2CCn3nc(C(F)(F)F)cc3N(C)C2=O)nc1-c1ccccc1` (centres unmarked) [Example 15, 5-methyl-N-(4-methyl-5-oxo-2-(trifluoromethyl)-5,6,7,8-tetrahydro-4H-pyrazolo[1,5-a][1,3]diazepin-6-yl)-4-phenyl-pyrimidine-2-carboxamide] as the compound, how does the IC50 read?
A: 498 nM

Q: Which IC50 does the source give for `Cc1ccc(C(=O)Nc2cccc(Cl)c2F)nc1-c1ccccc1` [Example 34, N-(3-chloro-2-fluorophenyl)-5-methyl-6-phenylpicolinamide] here?
A: ≥ 10000 nM

Q: How did the IC50 turn out when `Cc1cnc(C(=O)N[C@H]2COc3cc(Cl)cnc3N(C)C2=O)nc1-c1ccccc1F` [Example 116, (S)-N-(8-chloro-5-methyl-4-oxo-2,3,4,5-tetrahydro-pyrido[3,2-b][1,4]oxazepin-3-yl)-4-(2-fluorophenyl)-5-methylpyrimidine-2-carboxamide] was run?
A: 8.42 nM

Q: `CN1C(=O)[C@@H](NC(=O)c2ncc(Cl)c(-c3cccc(Cl)c3)n2)COc2cc(Cl)cnc21` [Example 102, (S)-5-chloro-N-(8-chloro-5-methyl-4-oxo-2,3,4,5-tetrahydropyrido[3,2-b]-[1,4]oxazepin-3-yl)-4-(3-chlorophenyl)pyrimidine-2-carboxamide] was tested. Which IC50 did it give?
A: 12.7 nM

Q: How did the IC50 turn out when `Cc1ccc(C(=O)N[C@H]2COc3cc(C#N)ccc3N(C)C2=O)nc1-c1ccccc1` [Example 40, (S)-N-(8-cyano-5-methyl-4-oxo-2,3,4,5-tetrahydro-benzo[b][1,4]oxazepin-3-yl)-5-methyl-6-phenylpicolinamide] was run?
A: 1570 nM

Q: For `CN1C(=O)[C@@H](NC(=O)c2ccc(Cl)c(-c3ccc(F)cc3)n2)COc2cc(C#N)ccc21` [Example 37, (S)-5-chloro-N-(8-cyano-5-methyl-4-oxo-2,3,4,5-tetrahydro-benzo[b][1,4]oxazepin-3-yl)-6-(4-fluorophenyl)picolinamide], which IC50 is on record?
A: 1560 nM

Q: Which IC50 does the source give for `Cc1ccc(-c2nc(C(=O)N[C@H]3CCc4ccccc4NC3=O)ncc2C)cc1` [Example 13, (S)-5-methyl-N-(2-oxo-2,3,4,5-tetrahydro-1H-benzo[b]azepin-3-yl)-4-(p-tolyl)pyrimidine-2-carboxamide] here?
A: 27.6 nM

Q: `CN1C(=O)[C@@H](NC(=O)c2ncc(Cl)c(-c3ncccc3F)n2)COc2cc(F)cnc21` [Example 85, (S)-5-chloro-N-(8-fluoro-5-methyl-4-oxo-2,3,4,5-tetrahydropyrido[3,2-b]-[1,4]oxazepin-3-yl)-4-(3-fluoropyridin-2-yl)pyrimidine-2-carboxamide] was tested. Which IC50 did it give?
A: 611 nM

Q: `CN1C(=O)[C@@H](NC(=O)c2ncc(Cl)c(-c3ccc(F)cc3F)n2)COc2ccc(-c3ccnn3C)cc21` [Example 149, (S)-5-chloro-4-(2,4-difluorophenyl)-N-(5-methyl-7-(1-methyl-1H-pyrazol-5-yl)-4-oxo-2,3,4,5-tetrahydrobenzo[b]-[1,4]oxazepin-3-yl)pyrimidine-2-carboxamide] was tested. Which IC50 did it give?
A: 19.8 nM

Q: Which IC50 does the source give for `CN1C(=O)[C@@H](NC(=O)c2ncc(Cl)c(-c3ccc(F)cc3F)n2)COc2cc(Cl)cnc21` [Example 96, (S)-5-chloro-N-(8-chloro-5-methyl-4-oxo-2,3,4,5-tetrahydropyrido[3,2-b]-[1,4]oxazepin-3-yl)-4-(2,4-difluorophenyl)pyrimidine-2-carboxamide] here?
A: 8.33 nM

Q: For `Cc1cnc(C(=O)N[C@H]2COc3cc(C#N)ccc3N(C)C2=O)nc1-c1ccccc1F` [Example 42, (S)-N-(8-cyano-5-methyl-4-oxo-2,3,4,5-tetrahydro-benzo[b][1,4]oxazepin-3-yl)-4-(2-fluorophenyl)-5-methylpyrimidine-2-carboxamide], which IC50 is on record?
A: 19.4 nM

Q: How did the IC50 turn out when `CN1C(=O)[C@@H](NC(=O)c2ncc(Cl)c(-c3ccc(Cl)cc3)n2)COc2cc(Cl)cnc21` [Example 103, (S)-5-chloro-N-(8-chloro-5-methyl-4-oxo-2,3,4,5-tetrahydropyrido[3,2-b]-[1,4]oxazepin-3-yl)-4-(4-chlorophenyl)pyrimidine-2-carboxamide] was run?
A: 6.69 nM
